Assay results: US6242478A, “Five member ring sulfenate esters and thiosulfinate esters” (Wake Forest University, priority 1999, dated 2001)
Like-named read-outs stand apart in the source and are kept apart here.

Key:
HIV-1RF = conditions: cited from earlier work
HeLa nuclear extract = conditions: CMV promoter, duck HBV sequence; cited from earlier work
NCp7 = molecular target: T1, NCp7 (Human immunodeficiency virus type 1 group M subtype B, UniProt P12493); conditions: 50 μM, reference compounds; cited from earlier work
T1 construct: HIV-1 nucleocapsid protein (NCp7)

CEM-SS cells = conditions: cited from earlier work
NCp7 protein = conditions: cited from earlier work; for ejection of zinc from NCp7: in words
[1] = system: enzymatic activities of the viral replication cycle; conditions: in words; cited from earlier work
GATA-1 = conditions: in words; cited from earlier work
HIV-1ADA = conditions: fresh human monocyte/macrophage cultures, cited from earlier work
Sp1 = conditions: in words; cited from earlier work
[2] = system: poly (ADP-ribose) polymerase (PARP); conditions: in words; cited from earlier work
[3] = system: fresh human monocyte/macrophage cultures; conditions: toxicity; cited from earlier work
GST [4] = conditions: rats; cited from earlier work
[5] = Dimitrov et al., 1992; cited from earlier work
Ferritin H mRNA = Ferritin H mRNA induction, Northern blot; format: cell-based, mouse; conditions: 80 μM, 24 hours
Protocol: (§1) BNL.CL2 cells were treated with Oltipraz, compound 121 described above, and compound 123 described above. All compounds were applied to the cells at 100 micromolar concentration for 24 hours.
(§2) Cells were exposed to compounds at a final concentration of 80 μM for 24 hours. RNA was isolated and analyzed by Northern blotting for the expression of the indicated genes. Control cells were incubated with vehicle alone (0.4% DMSO).
(§3) Northern blot: Treatment of BNL.CL2 cells with 100 μM Oltipraz, ALH-556, and ALH-562, ALH-561, ED 13.4, ED 14.6, DCF 070, ALH-490
(§4) BNL.CL2 cells (normal mouse embryonic liver cell line) were plated at ~3×10^5 cells/ml, grown for 16-24 hours, and treated with 0 μM and 100 μM Oltipraz, ALH-556 (121), and ALH-562 (123) for 24 hours. All three compounds were dissolved in DMSO and the final DMSO concentration present in all treatment conditions was 0.2%. BNL.CL2 cells were harvested by trypsinization and total RNA was isolated using the Trizol reagent (Gibco BRL) according to the manufacturer's procedures. 15 μg of RNA were run on a 1.1% agarose/6.6% formaldehyde gel and transferred overnight onto nitrocellulose membranes by capillary transfer using 20×SSC as transfer buffer. Subsequent to RNA transfer, the nitrocellulose membrane was baked at 80° C. for 2 hours. RNA was analyzed using a radiolabeled mouse ferritin H and human GST-α c-DNA. A human β-actin probe was used as an internal standard. The c-DNA probes were labeled with [α^32 P]dCTP by a random prime labeling. Hybridization of the c-DNA probes to the nitrocellulose membrane was performed at 68° C. for 60 minutes using the Quick-Hyb solution (Stratagene). Membranes were subjected to phosphoimager analysis after hybridization.

HIV-1 = conditions: Prochaska et al., 1993; cited from earlier work
[6] = system: DT-diaphorase (NQO1) mRNA; test: NQO1 mRNA induction, Northern blot; format: cell-based, mouse; conditions: 80 μM, 24 hours
Protocol: as §1, §2, §3, §4

[7] = system: GST alpha mRNA in BNL.CL2 cells; test: GST alpha mRNA induction, Northern blot; format: cell-based, mouse; conditions: 24 hours
Protocol: as §1, §2, §3, §4

GST [8] = conditions: mice; cited from earlier work
phase II enzymes = conditions: in words; cited from earlier work

O=S1(=O)C[C@H](O)[C@H](O)CS1 (relative stereo) [compound 8]
EC50 (HIV-1RF; CEM-SS cells, HIV-1RF, read-out: XTT assay EC50): 6.6 µM
activity against HIV-1 in XTT-based cytoprotection assay (HIV-1RF; in words): active
EC50 (HIV-1RF; two fold excess of glutathione (GSH), read-out: XTT assay EC50 with GSH): 64.2 µM
in vitro transcription (HeLa nuclear extract): did not significantly alter
NCp7 Trp37 Assay, % Decrease RFU/30 min, without GSH (NCp7): 17 % Decrease RFU/30 min
IC50 (CEM-SS cells; toxicity, CEM-SS cells, read-out: XTT assay IC50): 184 µM
IC50 (CEM-SS cells; two fold excess of glutathione (GSH), read-out: XTT assay IC50 with GSH): > 200 µM
ejection of zinc from NCp7 (NCp7 protein): promoted ejection of zinc
ejection of zinc from NCp7 (NCp7 protein; listed as NSC 624151 (8)): found to promote zinc ejection from the NCp7 protein
TSQ NCp7 Assay (NCp7 protein; unit not given): 17
effect on enzymatic activities of the viral replication cycle [1]: no other observable effect
specific binding of GATA-1 to DNA target (GATA-1): does not affect poly (ADP-ribose) polymerase (PARP) activity or alter specific binding
EC50 (HIV-1ADA; HIV-1ADA): 8 µM
activity against replication of monocytotropic HIV-1ADA (HIV-1ADA; in words): active
specific binding of Sp1 to DNA target (Sp1): does not affect poly (ADP-ribose) polymerase (PARP) activity or alter specific binding
effect on PARP activity [2]: does not affect
IC50 [3]: > 100 µM

Cc1c(-c2cnccn2)ssc1=S [Oltipraz]
elevation of GST levels (GST [4]): elevate levels of GST
toxicities [5]: photosensitivity/heat intolerance, GI effects, and neurologic toxicities
Ferritin H induction (mRNA) (Ferritin H mRNA): +
prevention of HIV-1 replication (HIV-1): prevent HIV-1 replication
NQO1 induction (mRNA) [6]: +
GST α induction (mRNA) ([7]; 80 μM, Northern blot): +
activation at 100 µM ([7]; Mus musculus, BNL CL.2, BNL.CL2 cells, 100 micromolar, read-out: increase in GST alpha mRNA levels): 340%
elevation of GST levels (GST [8]): elevate levels of GST
induction of phase I / phase II enzymes (phase II enzymes): monofunctional inducers
